From US9040713B2, “Methods of managing blood sugar levels and compositions related thereto” (EMORY UNIVERSITY, priority 2010, dated 2015)

Key:
3T3-L1 adipocytes = assay: Fatty acid oxidation assay; format: cell-based, mouse; conditions: 100 nM insulin or 5 μM 4524-E7; normalized to DMSO-treated cells
Protocol: (A) 4524-E7 activates IR phosphorylation and its downstream signaling in 3T3-L1 adipocytes. […] The cells were lysed, and immunoprecipitated with PY20, and followed by Western blot using specific antibodies. (B) 4524-E7 stimulates glucose uptake in 3T3-L1 adipocytes. […] [3H]2-deoxyglucose was added, and the cells were further incubated for 10 min. The amount of [3H]2-deoxyglucose taken by adipocytes was measured. (C) 4524-E7 inhibits fatty acid oxidation. […] Results were normalized to DMSO-treated cells and expressed as mean±S.E.M. (*: P<0.05; **:P<0.01, Student's t-test, n=3). (D) IR knockdown in adipocytes decreases IR signaling by 4524-E7. […] Cells lysates were collected and analyzed by Western blot. (E) The glucose uptake induced by 4524-E7 in p85α knockout MEF cells. […] The uptaken [3H] 2-deoxyglucose was monitored by liquid scintillation counter. Results were expressed as mean±S.E.M. (*: P<0.05; **:P<0.01, Student's t-test, n=3).
Fatty acid oxidation was measured by determining the production of 3H2O from [9, 10-3H] palmitate. Differentiated NIH3T3-L1 were plated (0.5×10^5 cell per well) in a 12-well plate for 1 day. […] After incubation, the medium was removed and extracted with Chloroform/Methanol (2:1), and the aqueous phase containing 3H2O was collected and used for radioactivity measurement in a liquid scintillation counter.

p85α−/− MEF cells = assay: [3H] 2-deoxyglucose transport in p85α knockout MEF cells; format: cell-based, mouse; conditions: insulin 100 nM 15 min or compound 5 μM 30 min
Protocol: Insulin signaling in the cell lysates were tested by immunoblotting. (B) DDN stimulates glucose uptake. […] [3H]2-deoxyglucose was then added, and the cells were further incubated for 10 min. [3H]2-deoxyglucose uptake by adipocytes was measured by scintillation counting (*: P<0.05 **: P<0.01 vs control, Student's t-test, n=3). (C) DDN synergizes insulin's signaling. […] Cell lysates were then prepared for Western blot using specific antibodies as indicated. […] 3H-2-deoxyglucose was then added, and the cells were further incubated for 10 min. 3H-2-deoxyglucose uptake by adipocytes was measured by scintillation counting (*: P<0.05; **: P<0.01, Student's t-test, n=3). (E) IR is necessary for DDN to induce ERK phosphorylation. […] Cell lysates were analyzed by Western blot. […] The uptake of 3H-2-deoxyglucose was monitored by liquid scintillation counting (*: P<0.05; **: P<0.01 vs control, Student's t-test, n=3).
(A) 4524-E7 activates IR phosphorylation and its downstream signaling in 3T3-L1 adipocytes. […] The amount of [3H]2-deoxyglucose taken by adipocytes was measured. […] Results were normalized to DMSO-treated cells and expressed as mean±S.E.M. (*: P<0.05; **:P<0.01, Student's t-test, n=3). […] Cells lysates were collected and analyzed by Western blot. […] 2-deoxyglucose was monitored by liquid scintillation counter. Results were expressed as mean±S.E.M. (*: P<0.05; **:P<0.01, Student's t-test, n=3). […]

Compound | lipid oxidation (3T3-L1 adipocytes) | [3H]-2-deoxyglucose uptake (p85α−/− MEF cells)
O=C1c2ccccc2C(=O)C2SC(Nc3ccc(Cl)cc3)=NC12 (stereo not shown) [4524-E7, 2-((4-chlorophenyl)amino)naphtho[2,3-d]thiazole-4,9(3aH,9aH)-dione] | ~50 % of the control | neither insulin nor 4524-E7 was able to induce glucose uptake
insulin: insulin, used as positive control | ~70 % of the control | neither insulin nor 4524-E7 was able to induce glucose uptake
